This series in a line: Dissolution of the crystalline solid in water. In kind it is physicochemical. Particulars: weighed amount of crystalline mass dissolved in water. As for the experimental part: The slurry was stirred and 50% NaOH (102.7 g) was slowly added as the flask was chilled in an ice bath to keep the temperature of the flask contents at around 75° F. Using a dropping funnel, elemental bromine (67.3 g) was dispensed at a rate of about one drop per second to the reaction medium, also with stirring and cooling to maintain a reaction temperature of 68° F. When the bromine addition was complete, the pH of the reaction medium was measured to be 1.97. A single charge of powdered trichloroisocyanuric acid (90.4% available Cl2) (33.1 g) was then delivered to the reaction medium through one of the necks of the flask. Stirring and cooling continued as normal as a fine powdery precipitate of cyanuric acid developed. After 10 minutes, 50% NaOH (11 g) was added dropwise in order to diminish the amount of bromine vapors that were fuming from the reaction medium. The cyanuric acid precipitate was then removed by vacuum filtration. […] The supernatant liquid above the crystals analyzed as 22.7% as Br2 (10.1% as Cl2), indicating the aqueous phase was losing active ingredient at the expense of crystal growth. […]

This passage reports dissolution in water results from patent US8574605B2, “Methods for the preparation of concentrated aqueous bromine solutions and high activity bromine-containing solids” (Enviro Tech Chemical Services, Inc., priority 2004, dated 2013).

With `O.O=S(=O)([O-])NBr.[Na+]` [hydrated sodium N-bromosulfamate], the dissolution in water result is “dissolved rapidly and completely”.
